In patent US20240011038A1, “CYTARABINE-MODIFIED miRNA FOR TREATING CANCER” (Curamir Therapeutics, Inc., priority 2022, published 2024):

Key:
Assay type in all cases: cell-based
[1] = test system: MV-4-11 acute myeloid leukemia cells; assay: Cell viability of MV-4-11 AML cells exposed to modified miRNA mimics (WST-1); details: MV-4-11 cells, vehicle-free transfection, dosage of 5 nM, 6 days; FIG. 3
Protocol: (§1) MV-4-11 (American Type Culture Collection; “ATCC”) AML cells were maintained in Iscove's Modified Dulbecco's Medium (IMDM) (Thermo Fisher Scientific) supplemented with 10% fetal bovine serum (“FBS”; VWR). REH ALL cells (ATCC) were maintained in RPMI-1640 Medium (Thermo Fisher Scientific) supplemented with 10% FBS.
(§2) For transfection with a vehicle, twenty-four hours before transfection, cells were plated in 6 well plates at 1×10^5 cells per well. Cells were transfected with negative control miRNA (Thermo Fisher Scientific), 5-FU miR-15a, or various versions of the ara-C modified miR-15a mimic, using Lipofectamine™ 2000 (Thermo Fisher Scientific) as directed by the manufacturer. MV-4-11 cells were transfected with 15 nM of miRNA and REH cells were transfected with 25 nM of miRNA. Twenty-four hours post-transfection, cells were replated at 2000 cells per well in 96 well plates. […]
(§3) Cell numbers were measured on days 1, 3, and 6 post transfection for cells transfected with Lipofectamine 2000 and on day 6 post transfection for vehicle free transfection, using WST-1 dye (Roche). Briefly, cells were incubated with 10 μl of WST-1 dye per 100 μl of media for 1 hour (REH) or 2 hours (MV-4-11) at 37° C. and absorbance was read at 450 nm and 630 nm. The optical density (“OD”) was calculated by subtracting the absorbance at 630 nm from that at 450 nm. […]

[2] = test system: REH acute lymphocytic leukemia cells; assay: Cell viability of REH ALL cells exposed to modified miRNA mimics (WST-1); details: vehicle-free transfection, 10, 5, 0.5 nM miRNA, day 6, FIG. 5
Protocol: as §1, §2, §3

[3] = test system: Wee1 gene mRNA; assay: Inhibition of Wee1 expression by modified miR-15a (qRT-PCR); details: MV-4-11 cells, lipofection, 15 nM miRNA, 24 h post-transfection, normalized to GAPDH, vs negative control miRNA; FIG. 7
Protocol: Wee1 is an important cell cycle regulator and a potential target for AML therapy. Wee1 is a direct target of miR-15a with two miR-15a binding sites in the 3′ UTR of Wee1.
For transfection with a vehicle, twenty-four hours before transfection, cells were plated in 6 well plates at 1×10^5 cells per well. Cells were transfected with negative control miRNA (Thermo Fisher Scientific), 5-FU miR-15a, or various versions of the ara-C modified miR-15a mimic, using Lipofectamine™ 2000 (Thermo Fisher Scientific) as directed by the manufacturer. MV-4-11 cells were transfected with 15 nM of miRNA. Twenty-four hours post-transfection, RNA was isolated from cells using TRIzol™ (Thermo Fisher Scientific) reagent following the manufacturer's protocol. Wee1 expression was measured using qRT-PCR and normalized to GAPDH expression and calculated by the double delta threshold cycle (ΔΔCt) method.

5-FU miR-15a: miR-15a mimic with 5-fluorouracil in the guide strand, unmodified passenger strand (FIG. 1F; SEQ ID NO: 1/2) (guide UAGCAGCACAUAAUGGUUUGUG; sense CAGGCCAUAUUGUGCUGCCUCA; 5-fluorouracil in guide strand; misc_feature 1..22 miR-15a guide strand; modified_base 1 OTHER; uracil or 5-fluorouracil; misc_feature 4 cytidine or cytosine arabinoside; misc_feature 7 cytidine or cytosine arabinoside; modified_base 11 OTHER; modified_base 14 OTHER; modified_base 17..19 OTHER; modified_base 21 OTHER; misc_fea; misc_feature 1..22 miR-15a passenger strand; misc_feature 1 cytidine or cytosine arabinoside; misc_feature 5..6 cytidine or cytosine arabinoside; misc_feature 15 cytidine or cytosine arabinoside;)
cell killing [1]: killed all cells in 6 days | inhibition of cell viability (percent cell viability) [2]: more effective than ara-C miR-15a | Wee1 gene mRNA expression (relative quantity, qRT-PCR) [3]: able to significantly suppress Wee1 gene mRNA expression
